The record followed here is ChEMBL document CHEMBL1130232, “Synthesis and biological evaluation of 4-(hydroxyalkyl)estradiols and related compounds” (J Med Chem, 1997).

Settings in all cases: mcf7
For assay [1], the target named is T1, Estrogen receptor (Homo sapiens, UniProt Q92731+P03372). Description: Affinity for estrogen receptor of human MCF-7 cells. It counts as cell-based.
Assay [2] concerns the target T1, Estrogen receptor. Description: Induction of pS2 Gene expression in human MCF-7 cells. It counts as functional, cell-based.
Assay [3] deals with T1, Estrogen receptor. Description: Affinity for estrogen receptor of human MCF-7 cells at 10e-5 M. It counts as cell-based.

Structures are written as SMILES.

On to `C[C@]12CC[C@@H]3c4ccc(O)c(CCO)c4CC[C@H]3[C@@H]1CC[C@@H]2O`, for which the half-maximal effective concentration (EC50) (in general, the concentration at which the effect is half-maximal) on Estrogen receptor [1] was found to be 0.62 µM; on Estrogen receptor [2], 0.148 µM. In the same order, the values of `C[C@]12CC[C@@H]3c4ccc(O)c(CCCO)c4CC[C@H]3[C@@H]1CC[C@@H]2O` are 3.32 µM and 2.95 µM. In the same order, the values of `C[C@]12CC[C@@H]3c4ccc(O)c(CO)c4CC[C@H]3[C@@H]1CC[C@@H]2O` are 0.364 µM and 0.0117 µM.

Compound `C[C@]12CC[C@@H]3c4ccc(O)c(CCN)c4CC[C@H]3[C@@H]1CC[C@@H]2O` came in with an EC50 at Estrogen receptor [3] of 2.5 µM. In the case of `C[C@]12CC[C@@H]3c4ccc(O)c(O)c4CC[C@H]3[C@@H]1CC[C@@H]2O`, the EC50 came to 0.506 µM on Estrogen receptor [1] and 0.0654 µM on Estrogen receptor [2].
